{"source": "paper PMC3733996", "about": "(Bioorganic & medicinal chemistry letters, 2013)", "target": "serotonin transporter (SERT) (Rattus norvegicus, UniProt P31652)", "sequence (P31652 whole entry)": "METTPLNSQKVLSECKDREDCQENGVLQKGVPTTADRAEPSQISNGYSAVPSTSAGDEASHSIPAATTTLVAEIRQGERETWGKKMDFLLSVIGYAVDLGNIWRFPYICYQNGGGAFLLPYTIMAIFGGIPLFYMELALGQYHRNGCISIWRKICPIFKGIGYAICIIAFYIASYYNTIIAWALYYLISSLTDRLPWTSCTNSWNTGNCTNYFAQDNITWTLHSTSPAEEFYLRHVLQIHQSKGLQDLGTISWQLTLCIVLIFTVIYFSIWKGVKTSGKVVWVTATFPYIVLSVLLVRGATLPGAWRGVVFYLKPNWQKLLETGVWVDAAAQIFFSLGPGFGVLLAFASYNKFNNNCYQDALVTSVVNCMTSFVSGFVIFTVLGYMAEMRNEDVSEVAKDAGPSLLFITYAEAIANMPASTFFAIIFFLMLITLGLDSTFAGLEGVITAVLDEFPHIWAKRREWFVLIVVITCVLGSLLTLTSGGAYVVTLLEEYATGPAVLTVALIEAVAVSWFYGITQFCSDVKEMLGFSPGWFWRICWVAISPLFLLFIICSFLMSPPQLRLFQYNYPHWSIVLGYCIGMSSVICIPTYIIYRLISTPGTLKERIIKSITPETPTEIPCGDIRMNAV", "experiment": "Displacement of [3H]citalopram from serotonin transporter in rat brain tissue", "format": "binding", "settings": "ratio of Ki DAT / Ki SERT"}
{"smiles": "Cl.Clc1ccc(COC2(c3ccc(Cl)cc3)CNC2)cc1", "note": "[6e]", "values": [{"measurement": "DAT/SERT", "result": "1,100"}]}
{"smiles": "Cl.Clc1ccc(COC2(c3ccc(Cl)c(Cl)c3)CNC2)cc1", "note": "[6h]", "values": [{"measurement": "DAT/SERT", "result": "1,000"}]}
